Patent publication US20250002507A1, “7,8-DIHYDRO-5H-1,6-NAPHTHYRIDINE DERIVATIVES AS POSITIVE ALLOSTERIC MODULATORS OF THE MUSCARINIC ACETYLCHOLINE RECEPTOR M4 FOR TREATING NEUROLOGICAL AND PSYCHIATRIC DISORDERS” (Vanderbilt University, priority 2021, published 2025)
Like-named read-outs stand apart in the source and are kept apart here.

Target: T1, Human M4 (Homo sapiens, UniProt P08173)
T1 construct: expressed in transfected cells
T1 sequence (P08173 1-479): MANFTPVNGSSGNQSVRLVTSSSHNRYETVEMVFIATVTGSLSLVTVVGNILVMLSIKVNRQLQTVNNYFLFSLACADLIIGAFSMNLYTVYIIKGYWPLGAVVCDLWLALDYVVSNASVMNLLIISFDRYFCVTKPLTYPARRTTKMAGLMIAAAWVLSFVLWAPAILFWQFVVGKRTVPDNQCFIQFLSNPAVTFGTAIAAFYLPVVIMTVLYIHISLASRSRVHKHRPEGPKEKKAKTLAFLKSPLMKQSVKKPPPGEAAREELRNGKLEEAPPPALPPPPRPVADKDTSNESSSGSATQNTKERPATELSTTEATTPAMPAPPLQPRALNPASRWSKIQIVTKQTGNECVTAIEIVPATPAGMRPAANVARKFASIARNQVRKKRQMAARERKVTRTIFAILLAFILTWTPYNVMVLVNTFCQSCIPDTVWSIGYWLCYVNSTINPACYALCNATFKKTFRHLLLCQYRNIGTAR
Test: mAChR M4 cell-based functional assay (calcium flux, potentiation of EC20 acetylcholine response), hM4-Gqi5 CHO-K1 cells
Settings: for Emax at 30 µM: CHO-K1, % ACh maximum at 30 μM; for EC50: calcium flux, read-out: Human M4 EC50
Outline: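 CHO-K1 cells stably expressing human M4 with chimeric Gqi5, loaded with Fluo-4 AM 50 min at 37 °C; calcium flux read by FDSS. 11-point 1:3 compound curves added, then EC20 acetylcholine at 144 s; potentiation of the EC20 response fitted by four-parameter logistic to give EC50 and Emax.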

[1] = hM4-Gqi5 CHO-K1 cells, PAM of EC20 acetylcholine
[2] = Table 3, Human M4, read-out: Emax (% ACh maximum at 30 μM)
[3] = Table 3, potentiation of EC20 acetylcholine response, CHO-K1 cells
[4] = Table 4, Human M4, read-out: Emax (% ACh maximum at 30 μM)
[5] = Table 4, potentiation of EC20 acetylcholine response, CHO-K1 cells

Row | Emax at 30 µM (human M4, read-out: Emax) [%] | EC50 [1] [nM] | Emax at 30 µM [2] [%] | EC50 [3] [nM] | Structure (SMILES) | also measured
1 | 97 | 106 |  |  | Cc1c(N2CCc3ncc(-c4cncs4)cc3C2)nn2c(C(F)(F)F)nnc2c1C [Compound 96, 5-[6-[7,8-dimethyl-3-(trifluoromethyl)-[1,2,4]triazolo[4,3-b]pyridazin-6-yl]-7,8-dihydro-5H-1,6-naphthyridin-3-yl]thiazole] | 
2 | 76 |  |  |  | Cc1c(N2CCc3ncc(C(=O)NCC4COC4)cc3C2)nn2cnnc2c1C [Compound 120, 6-(7,8-dimethyl-[1,2,4]triazolo[4,3-b]pyridazin-6-yl)-N-(oxetan-3-ylmethyl)-7,8-dihydro-5H-1,6-naphthyridine-3-carboxamide] | 
3 | 59 | 234 |  |  | Cc1cc2nncn2nc1N1CCc2ncc(-c3cnn(C4CCCCC4)c3)cc2C1 [Compound 106, 3-(1-cyclohexylpyrazol-4-yl)-6-(7-methyl-[1,2,4]triazolo[4,3-b]pyridazin-6-yl)-7,8-dihydro-5H-1,6-naphthyridine] | 
4 |  |  | 67 | 1880 | Cc1ccc(Oc2cnc3c(c2)CN(c2nn4c(C(F)(F)F)nnc4c(C)c2C)CC3)c(F)c1 [Compound 291, 6-(7,8-dimethyl-3-(trifluoromethyl)-[1,2,4]triazolo[4,3-b]pyridazin-6-yl)-3-(2-fluoro-4-methylphenoxy)-5,6,7,8-tetrahydro-1,6-naphthyridine] | 
5 | 95 | 882 |  |  | Cc1c(N2CCc3ncc(Nc4cccc(C(F)(F)F)c4F)cc3C2)nn2cnnc2c1C [Compound 66, 6-(7,8-dimethyl-[1,2,4]triazolo[4,3-b]pyridazin-6-yl)-N-[2-fluoro-3-(trifluoromethyl)phenyl]-7,8-dihydro-5H-1,6-naphthyridin-3-amine] | 
6 |  |  | 95 | 1850 | Cc1c(N2CCc3ncc(C(C)(O)C4CC4)cc3C2)nn2cnnc2c1C (centres unmarked) [Compound 166, 1-cyclopropyl-1-(6-(7,8-dimethyl-[1,2,4]triazolo[4,3-b]pyridazin-6-yl)-5,6,7,8-tetrahydro-1,6-naphthyridin-3-yl)ethan-1-ol] | 
7 | 101 | 249 |  |  | CCn1cc(-c2cnc3c(c2)CN(c2nn4cnnc4c(C)c2C)CC3)cn1 [Compound 100, 6-(7,8-dimethyl-[1,2,4]triazolo[4,3-b]pyridazin-6-yl)-3-(1-ethylpyrazol-4-yl)-7,8-dihydro-5H-1,6-naphthyridine] | 
8 |  |  | 88 | 292 | Cc1ncc(-c2cnc3c(c2)CN(c2nn4cnnc4cc2C)CC3)s1 [Compound 194, 2-methyl-5-(6-(7-methyl-[1,2,4]triazolo[4,3-b]pyridazin-6-yl)-5,6,7,8-tetrahydro-1,6-naphthyridin-3-yl)thiazole] | 
9 | 90 | 152 |  |  | COc1ccccc1Nc1cnc2c(c1)CN(c1nn3cnnc3c(C)c1C)CC2 [Compound 54, 6-(7,8-dimethyl-[1,2,4]triazolo[4,3-b]pyridazin-6-yl)-N-(2-methoxyphenyl)-7,8-dihydro-5H-1,6-naphthyridin-3-amine] | 
10 | 96 | 788 |  |  | Cc1c(N2CCc3ncc(Nc4c(F)cccc4Cl)cc3C2)nn2cnnc2c1C [Compound 64, N-(2-chloro-6-fluoro-phenyl)-6-(7,8-dimethyl-[1,2,4]triazolo[4,3-b]pyridazin-6-yl)-7,8-dihydro-5H-1,6-naphthyridin-3-amine] | 
11 |  |  | 93 | 695 | Cc1c(N2CCc3ncc(-c4cccnc4F)cc3C2)nn2cnnc2c1C [Compound 183, 6-(7,8-dimethyl-[1,2,4]triazolo[4,3-b]pyridazin-6-yl)-3-(2-fluoropyridin-3-yl)-5,6,7,8-tetrahydro-1,6-naphthyridine] | 
12 | 63 | 295 |  |  | Cc1c(N2CCc3ncc(Oc4ccc5c(c4)OCCO5)cc3C2)nn2cnnc2c1C [Compound 7, 3-(2,3-dihydro-1,4-benzodioxin-6-yloxy)-6-(7,8-dimethyl-[1,2,4]triazolo[4,3-b]pyridazin-6-yl)-7,8-dihydro-5H-1,6-naphthyridine] | 
13 |  |  | 77 | 940 | COC1CCN(c2cnc3c(c2)CN(c2nn4c(C(F)(F)F)nnc4c(C)c2C)CC3)C1 (centres unmarked) [Compound 288, 6-(7,8-dimethyl-3-(trifluoromethyl)-[1,2,4]triazolo[4,3-b]pyridazin-6-yl)-3-(3-methoxypyrrolidin-1-yl)-5,6,7,8-tetrahydro-1,6-naphthyridine] | 
14 |  |  |  |  | [2H]C1([2H])Cc2ncc(Nc3ccncc3C)cc2C([2H])([2H])N1c1nn2cnnc2c(C)c1C [Compound 357, 6-(7,8-dimethyl-[1,2,4]triazolo[4,3-b]pyridazin-6-yl)-N-(3-methylpyridin-4-yl)-5,6,7,8-tetrahydro-1,6-naphthyridin-5,5,7,7-d4-3-amine] | Emax at 30 µM [4]: 74%; EC50 [5]: 168 nM
15 |  |  | 82 | 1220 | Cc1c(N2CCc3ncc(OCC4CCOC4)cc3C2)nn2cnnc2c1C (centres unmarked) [Compound 264, 6-(7,8-dimethyl-[1,2,4]triazolo[4,3-b]pyridazin-6-yl)-3-((tetrahydrofuran-3-yl)methoxy)-5,6,7,8-tetrahydro-1,6-naphthyridine] | 
16 | 107 | 316 |  |  | Cc1cc2nncn2nc1N1CCc2ncc(-c3cnn(C4CCNCC4)c3)cc2C1 [Compound 149, 6-(7-methyl-[1,2,4]triazolo[4,3-b]pyridazin-6-yl)-3-[1-(4-piperidyl)pyrazol-4-yl]-7,8-dihydro-5H-1,6-naphthyridine] | 
17 |  |  | 65 | 3280 | Cc1c(N2CCc3ncc(N4CCC5(CC4)COC5)cc3C2)nn2c(C(F)(F)F)nnc2c1C [Compound 274, 7-(6-(7,8-dimethyl-3-(trifluoromethyl)-[1,2,4]triazolo[4,3-b]pyridazin-6-yl)-5,6,7,8-tetrahydro-1,6-naphthyridin-3-yl)-2-oxa-7-azaspiro[3.5]nonane] | 
18 |  |  | 83 | 223 | Cc1c(N2CCc3ncc(-c4ccc(N5CCC5)nc4)cc3C2)nn2cnnc2c1C [Compound 217, 3-(6-(azetidin-1-yl)pyridin-3-yl)-6-(7,8-dimethyl-[1,2,4]triazolo[4,3-b]pyridazin-6-yl)-5,6,7,8-tetrahydro-1,6-naphthyridine] | 
19 | 73 |  |  |  | Cc1c(N2CCc3ncc(C(=O)N4CCC(O)CC4C)cc3C2)nn2cnnc2c1C (centres unmarked) [Compound 119, [6-(7,8-dimethyl-[1,2,4]triazolo[4,3-b]pyridazin-6-yl)-7,8-dihydro-5H-1,6-naphthyridin-3-yl]-(4-hydroxy-2-methyl-1-piperidyl)methanone] | 
20 |  |  | 84 | 332 | CCn1cc(-c2cnc3c(c2)CN(c2nn4c(C(F)(F)F)nnc4c(C)c2C)CC3)cn1 [Compound 237, 6-(7,8-dimethyl-3-(trifluoromethyl)-[1,2,4]triazolo[4,3-b]pyridazin-6-yl)-3-(1-ethyl-1H-pyrazol-4-yl)-5,6,7,8-tetrahydro-1,6-naphthyridine] | 
21 |  |  | 87 | 831 | Cc1c(N2CCc3ncc(NC4CCCC4)cc3C2)nn2c(C(F)(F)F)nnc2c1C [Compound 272, N-cyclopentyl-6-(7,8-dimethyl-3-(trifluoromethyl)-[1,2,4]triazolo[4,3-b]pyridazin-6-yl)-5,6,7,8-tetrahydro-1,6-naphthyridin-3-amine] | 
22 | 81 | 772 |  |  | Cc1cc2nncn2nc1N1CCc2ncc(-c3c(C)cnn3C)cc2C1 [Compound 135, 3-(2,4-dimethylpyrazol-3-yl)-6-(7-methyl-[1,2,4]triazolo[4,3-b]pyridazin-6-yl)-7,8-dihydro-5H-1,6-naphthyridine] | 
23 |  |  | 73 | 401 | Cc1c(N2CCc3ncc(-c4ccc(N5CCCC5)nc4)cc3C2)nn2cnnc2c1C [Compound 207, 6-(7,8-dimethyl-[1,2,4]triazolo[4,3-b]pyridazin-6-yl)-3-(6-(pyrrolidin-1-yl)pyridin-3-yl)-5,6,7,8-tetrahydro-1,6-naphthyridine] | 
24 |  |  | 97 | 168 | COc1nnc2c(C)c(C)c(N3CCc4ncc(C(F)(F)F)cc4C3)nn12 [Compound 270, 6-(3-Methoxy-7,8-dimethyl-[1,2,4]triazolo[4,3-b]pyridazin-6-yl)-3-(trifluoromethyl)-7,8-dihydro-5H-1,6-naphthyridine] | 
25 |  |  |  |  | [2H]C1([2H])Cc2ncc(Nc3cc(C)ncc3F)cc2C([2H])([2H])N1c1nn2cnnc2c(C)c1C [Compound 353, 6-(7,8-dimethyl-[1,2,4]triazolo[4,3-b]pyridazin-6-yl)-N-(5-fluoro-2-methylpyridin-4-yl)-5,6,7,8-tetrahydro-1,6-naphthyridin-5,5,7,7-d4-3-amine] | Emax at 30 µM [4]: 99%; EC50 [5]: 22 nM
26 |  |  |  |  | CCOC(=O)c1c(C)nc2cc(C)c(N3CCc4ncc(C(F)(F)F)cc4C3)nn12 [Compound 337, ethyl 2,7-dimethyl-6-(3-(trifluoromethyl)-7,8-dihydro-1,6-naphthyridin-6(5H)-yl)imidazo[1,2-b]pyridazine-3-carboxylate] | Emax at 30 µM [4]: 61%; EC50 [5]: 1610 nM
